Laboratory results as given in the NIST ThermoML archive (doi:10.1016/j.fluid.2013.06.021).

Assay: xn = mol fraction of the nth substance listed
Conditions: 101 kPa, Liquid; for speed of sound: Sing-around technique in a fixed-path interferometer; for mass density: Vibrating tube method; for viscosity: Capillary tube (Ostwald / Ubbelohde) method

CCCCOCCO [2-butoxyethan-1-ol] + CCCO
Conditions	mass density [kg/m3]	speed of sound [m/s]	viscosity [mPa·s]
293.15 K, x1 = 0.052	812.72	1233.5	–
293.15 K, x1 = 0.1024	820.5	1241.8	–
293.15 K, x1 = 0.1524	827.69	1249.4	–
293.15 K, x1 = 0.1986	833.97	1255.9	–
293.15 K, x1 = 0.2528	840.79	1263	–
293.15 K, x1 = 0.3032	846.73	1269.1	–
293.15 K, x1 = 0.4064	857.67	1280.4	–
293.15 K, x1 = 0.5015	866.6	1289.5	–
293.15 K, x1 = 0.6031	875.08	1298.1	–
293.15 K, x1 = 0.7006	882.33	1305.4	–
293.15 K, x1 = 0.8022	889.07	1312.2	–
293.15 K, x1 = 0.8553	892.31	1315.4	–
293.15 K, x1 = 0.9066	895.25	1318.3	–
293.15 K, x1 = 0.9516	897.7	1320.8	–
298.15 K, x1 = 0.052	808.78	1216.5	1.991
298.15 K, x1 = 0.1024	816.6	1224.8	2.014
298.15 K, x1 = 0.1524	823.84	1232.3	2.048
298.15 K, x1 = 0.1986	830.06	1238.9	2.079
298.15 K, x1 = 0.2528	836.87	1245.9	2.122
298.15 K, x1 = 0.3032	842.76	1252	2.163
298.15 K, x1 = 0.4064	853.64	1263.3	2.256
298.15 K, x1 = 0.5015	862.56	1272.3	2.351
298.15 K, x1 = 0.6031	871.01	1280.9	2.457
298.15 K, x1 = 0.7006	878.24	1288.3	2.558
298.15 K, x1 = 0.8022	884.94	1295.1	2.666
298.15 K, x1 = 0.8553	888.19	1298.3	2.725
298.15 K, x1 = 0.9066	891.15	1301.3	2.779
298.15 K, x1 = 0.9516	893.62	1303.7	2.83
303.15 K, x1 = 0.052	804.75	1199.4	1.751
303.15 K, x1 = 0.1024	812.56	1207.8	1.776
303.15 K, x1 = 0.1524	819.76	1215.4	1.811
303.15 K, x1 = 0.1986	825.96	1221.9	1.844
303.15 K, x1 = 0.2528	832.81	1229	1.883
303.15 K, x1 = 0.3032	838.66	1235.1	1.925
303.15 K, x1 = 0.4064	849.51	1246.3	2.027
303.15 K, x1 = 0.5015	858.44	1255.4	2.129
303.15 K, x1 = 0.6031	866.86	1264	2.233
303.15 K, x1 = 0.7006	874.08	1271.3	2.338
303.15 K, x1 = 0.8022	880.81	1278	2.443
303.15 K, x1 = 0.8553	884.07	1281.3	2.505
303.15 K, x1 = 0.9066	887.02	1284.2	2.559
303.15 K, x1 = 0.9516	889.53	1286.6	2.615
308.15 K, x1 = 0.052	800.67	1182.4	1.578
308.15 K, x1 = 0.1024	808.47	1190.8	1.597
308.15 K, x1 = 0.1524	815.69	1198.4	1.627
308.15 K, x1 = 0.1986	821.89	1205	1.657
308.15 K, x1 = 0.2528	828.69	1212.1	1.69
308.15 K, x1 = 0.3032	834.55	1218.3	1.726
308.15 K, x1 = 0.4064	845.38	1229.5	1.804
308.15 K, x1 = 0.5015	854.29	1238.6	1.874
308.15 K, x1 = 0.6031	862.71	1247.2	1.953
308.15 K, x1 = 0.7006	869.93	1254.4	2.026
308.15 K, x1 = 0.8022	876.64	1261.1	2.11
308.15 K, x1 = 0.8553	879.9	1264.3	2.156
308.15 K, x1 = 0.9066	882.86	1267.2	2.188
308.15 K, x1 = 0.9516	885.32	1269.7	2.218
313.15 K, x1 = 0.052	796.66	1165.4	–
313.15 K, x1 = 0.1024	804.45	1173.7	–
313.15 K, x1 = 0.1524	811.62	1181.4	–
313.15 K, x1 = 0.1986	817.8	1188	–
313.15 K, x1 = 0.2528	824.54	1195.2	–
313.15 K, x1 = 0.3032	830.4	1201.5	–
313.15 K, x1 = 0.4064	841.23	1212.9	–
313.15 K, x1 = 0.5015	850.1	1222	–
313.15 K, x1 = 0.6031	858.52	1230.6	–
313.15 K, x1 = 0.7006	865.71	1237.8	–
313.15 K, x1 = 0.8022	872.48	1244.4	–
313.15 K, x1 = 0.8553	875.69	1247.6	–
313.15 K, x1 = 0.9066	878.69	1250.5	–
313.15 K, x1 = 0.9516	881.14	1252.9	–
